Measured values: article PMC7954794, “Protein context shapes the specificity of SH3 domain-mediated interactions in vivo” (Nature Communications, 2021)

Key:
NCK2 = NCK2 phase separation in vitro, 60 mM NaCl, Coomassie quantification (Fig. 5E); parameters: species or system mouse; settings: Amount/Total
Procedure: E. coli BL21 (DE3) cells were transformed with mNCK2 constructs in the pET-30b vector and grown overnight at 37 °C in LB with 100 µg/ml kanamycin. The next day, cultures were expanded in LB with kanamycin until they reached their exponential growth phase (OD600 of around 1.0). Protein production was then induced by the addition of 1 mM IPTG (Bio Basic) and incubation at 16 °C overnight with agitation. Cultures were pelleted with a centrifugation step (3200g at 4 °C, 30 min), washed with ice-cold PBS, and pellets were kept at −80 °C. Bacteria were thawed in GST buffer (20 mM Tris-HCl pH 7.5, 0.5 M NaCl, 1 mM EDTA, and 1 mM DTT (Millipore Sigma)) with cOmplete protease inhibitors (Millipore Sigma) and disrupted with sonication. Lysates were then centrifuged at 20,000g for 20 min at 4 °C and the supernatant loaded to a GSTrap FF 1 mL column (GE Healthcare). Following a washing step with 10 mL GST–Buffer, the GST-Tagged proteins were eluted with 15 mM GSH (Bio-basic) and cleaved in a solution using purified recombinant His-tagged TEV protease (Thermo Fisher Scientific). Tag-free NCK2 proteins were further purified using a 1 ml HisTrap FF column (GE Healthcare) to remove free His-tagged GST and TEV as well as remaining impurities. The purified proteins were concentrated with Amicon 10 K filters (Millipore Sigma) and their concentration assessed using Coomassie and BCA assays (Thermo Fisher Scientific).
Purified NCK2 proteins were diluted in GST buffer to identical concentrations. At 500 mM NaCl present in this buffer, all NCK2 constructs were completely soluble. Phase transition was initiated by dilution in imidazole buffer (10 mM imidazole (Bio Basic) pH 7.0, 1 mM DTT, 1 mM EGTA (Millipore Sigma), 1 mM MgCl2, 2.5% Glycerol (Bioshop Canada), 3% Dextran (Millipore Sigma)) containing various amount of NaCl so that the final concentration of NaCl would correspond to those in Supplementary Fig. 7B. For all the other experiments, the phase transition of NCK2 proteins was assessed at 60 mM NaCl. NCK2 at 8 μg/μL (40 μg in 5 μL) was added to 35 μL imidazole buffer in a plastic 96-well plate that had first been pretreated with a 0.2% bovine serum albumin solution to reduce nonspecific binding. The plate assay was then incubated overnight (24 h) at 4 °C before imaging. Phase-contrast images of each well were acquired using a Zeiss Axio Vert.A1 inverted microscope with an LD A-Plan 40×/0.55 Ph1 objective (Zeiss) in Zen Blue software (version 2.3.69.1000). After imaging, the soluble protein fraction (supernatant) was recovered for sodium dodecyl sulfate polyacrylamide gel electrophoresis analysis. Protein droplets attached at the bottom of the well (pellet) were washed once with imidazole buffer with 60 mM NaCl and then solubilized in Laemmli buffer. The pellets to supernatant fractions were used to quantify phase transition at 60 mM NaCl (7 replicates) via Coomassie protein quantification. The involvement of weak hydrophobic interactions in NCK2 driven phase transition was assessed using 1,6-Hexanediol (Millipore Sigma) at 60 mM NaCl. Imidazole buffer containing 0%, 1%, 5%, and 10% 1,6-Hexanediol was first prepared and phase transition was initiated and analyzed as described above. Finally, the competition of SH3-2 dependent homotypic NCK2 interaction with an SH3-2 binding peptide was assessed in the presence of 5, 15, 45, 90, 150, or 300 μM PAK1 peptide ([…]) in imidazole buffer with 60 mM NaCl. The impact of PAK1 peptide addition was observed via phase contrast microscopy as described above.

BEM1-1 = experiment: DHFR-PCA on solid medium, bait BEM1-1 (Fig. 1B); type: cell-based, Saccharomyces cerevisiae; settings: bait BEM1-1, label = prey; for medrep (log2 median colony size normalized to plate background, PCA score): 2-8 replicates; for Ratio (SH3-deleted/WT medrep): only significant differences showed, PPIs completely lost have a ratio of 0.1 and the gained PPIs 2.5
Text: (§1) Supplement 41467_2021_21873_MOESM8_ESM.xlsx, sheet "Fig1B" | column: medsize; medrep; Ratio; Score

BOI1 = experiment: DHFR-PCA on solid medium, bait BOI1 (Fig. 1B); type: cell-based, Saccharomyces cerevisiae; settings: bait BOI1, label = prey
Text: as §1

[1] = system: 575 putative partners (preys) of 22 WT SH3-containing proteins; experiment: DHFR-PCA on solid medium, WT and SH3-deleted baits (Fig. 1B); type: cell-based, Saccharomyces cerevisiae; parameters: key to Score: 0: SH3-independent; 1: SH3-dependent PPIs; 2: SH3-inhibited PPIs; settings: for medrep (log2 median colony size normalized to plate background, PCA score): label = prey
Text: To assess the requirement of SH3 domains for PPIs in vivo, we first measured binary interactions between 22 WT SH3-containing proteins (Supplementary Fig. 1A) as baits and 575 putative partners from their interconnected signaling networks using the dihydrofolate reductase protein–fragment complementation assay (DHFR-PCA) in the budding yeast Saccharomyces cerevisiae. About 33% (202/607) of the PPIs detected were described before, mostly by direct methods (Supplementary Fig. 1B, C)[11]. We repeated the experiments with baits in which the SH3s were individually replaced with a flexible linker by genome editing (SH3 domain deletion/stuffing, Fig. 1A). The stuffer DNA sequence ([…]) codes for a small flexible poly-Gly with Ser peptide ([…]) that is inspired by previous experiments[12],[13]. About a third of the SH3-containing protein interactome is qualitatively or quantitatively SH3-dependent (171 PPIs out of 607, Fig. 1B and Supplementary Fig. 1B, C). We validated the vast majority of the quantitative changes in low-throughput experiments and excluded that this is simply due to changes in protein abundance in most cases (Supplementary Fig. 1D–G). SH3-binding motifs[14] are more frequent in the SH3-dependent PPI partners when compared to sequences from random proteins, SH3-independent PPI partners or PPI partners that are stronger or gained following SH3 deletions (p values = 1.5 × 10^−17, 0.0038 and 2.1 × 10^−08, respectively; Mann–Whitney test, one-tailed, Fig. 1C). The changes we measure are therefore enriched for PPIs that depend on the direct interactions of the domains with the PPI partners.
The complete list of strains, primers, and gRNAs used in this study can be found in Supplementary Tables 1–3. All constructed yeast strains were validated by polymerase chain reaction (PCR) and confirmed by Sanger sequencing of the locus of interest. Bait strains for the DHFR-PCA experiments were constructed as follows. The genes of interest were fused at their genomic 3′ end by replacing the stop codon with a linker ([…]), the DHFR F[1,2] followed by a smaller linker (GGGGS), a 1× FLAG tag ([…]) and the NATMX4 resistance cassette via homologous recombination (all amplified from pAG25-DHFR[1,2]-linker-FLAG). The set of 615 prey strains (DHFR F[3] fusions in the BY4742 background) were retrieved from the Yeast Protein Interactome Collection[43] with the exception of 73 that were reconstructed (Supplementary Tables 1 and 2). Knockout strains were taken from the yeast knockout collection except for ABP1, BEM1, BZZ1, and SLA1, which were reconstructed by replacing the ORFs with the NATMX4 resistance cassette by homologous recombination in the BY4741 background.
Yeast SH3 domain genomic sequences were replaced by CRISPR–Cas9 genome editing. Each SH3 domain (as defined by the SMART database V8.0 except for Ysc84 SH3 (as defined by PROSITE), see Source Data for all SH3 sequences and Supplementary Table 1 for primers used) was specifically targeted by one gRNA[46]. Yeast competent cells were co-transformed with a pCAS plasmid (Addgene plasmid 60847[47]) expressing both the gRNA of interest and Streptococcus pyogenes Cas9[46] and a donor DNA sequence (stuffer) with 60 bp homology arms surrounding the SH3 DNA sequence. The Stuffer DNA was either PCR amplified or digested from a plasmid. The stuffer DNA sequence ([…]) codes for a small flexible linker ([…]) inspired by protein linkers used in structural biology[12],[13]. This type of linker is frequently used for fusing proteins without affecting the structure of the linked proteins.
The overall DHFR-PCA pipeline is based on Tarassov et al.[43] and the procedures have also been published as a visualized protocol. The screens were performed with robotically manipulated pin tools (BM5-SC1, S&P Robotics Inc.). First, the preys were cherry-picked from 96-well plates to omnitrays in a 384 format on YPD + HPH solid media. […]

BBC1 = experiment: DHFR-PCA on solid medium, bait BBC1 (Fig. 1B); type: cell-based, Saccharomyces cerevisiae; settings: bait BBC1, label = prey; for medrep (log2 median colony size normalized to plate background, PCA score): 2-4 replicates
Text: as §1

BEM1-2 = experiment: DHFR-PCA on solid medium, bait BEM1-2 (Fig. 1B); type: cell-based, Saccharomyces cerevisiae; settings: bait BEM1-2, label = prey; for medrep (log2 median colony size normalized to plate background, PCA score): 2-8 replicates; for Ratio (SH3-deleted/WT medrep): only significant differences showed, PPIs completely lost have a ratio of 0.1 and the gained PPIs 2.5
Text: as §1

ABP1 = experiment: DHFR-PCA on solid medium, bait ABP1 (Fig. 1B); type: cell-based, Saccharomyces cerevisiae; settings: bait ABP1, label = prey; 2-4 replicates
Text: as §1

BOI2 = experiment: DHFR-PCA on solid medium, bait BOI2 (Fig. 1B); type: cell-based, Saccharomyces cerevisiae; settings: bait BOI2, label = prey
Text: as §1

[2] = only significant differences showed, PPIs completely lost have a ratio of 0.1 and the gained PPIs 2.5
[3] = bait SLA1-3, DHFR-PCA, Replicates 4 (2 for YCR009C, YDR388W, YIL033C)

What does the source list for NCK2?
Ratio (NCK2; Phase Pellet, replicate 1): 0.2548; Ratio (NCK2; Phase Pellet, replicate 2): 0.3742; Ratio (NCK2; Phase Pellet, replicate 3): 0.4878; Ratio (NCK2; Phase Pellet, replicate 4): 0.2596; Ratio (NCK2; Phase Pellet, replicate 5): 0.2564; Ratio (NCK2; Phase Pellet, replicate 6): 0.2454; Ratio (NCK2; Phase Pellet, replicate 7): 0.2712; Ratio (NCK2; Phase Soluble, replicate 1): 0.7452; Ratio (NCK2; Phase Soluble, replicate 2): 0.6258; Ratio (NCK2; Phase Soluble, replicate 3): 0.5122; Ratio (NCK2; Phase Soluble, replicate 4): 0.7404; Ratio (NCK2; Phase Soluble, replicate 5): 0.7436; Ratio (NCK2; Phase Soluble, replicate 6): 0.7546; Ratio (NCK2; Phase Soluble, replicate 7): 0.7288

YDR265W was tested. Which “medrep (log2 median colony size normalized to plate background, PCA score)” value (BEM1-1) did it give?
The value was 2.347.

And the “Ratio (SH3-deleted/WT medrep)” value (BEM1-1)?
Its value is 2.5.

With YGL206C as the substance, how does the “medrep (log2 median colony size normalized to plate background, PCA score)” value (BOI1; 3-8 replicates) read?
The value was 1.512.

What about the “Ratio (SH3-deleted/WT medrep)” value (BOI1; [2]) of the same substance?
The value was 0.1.

And the “medrep (log2 median colony size normalized to plate background, PCA score)” value [1, 3]?
The value was 4.577.

And the Score ([1]; bait SLA1-3, label = prey)?
Its Score is 0.

And the “medrep (log2 median colony size normalized to plate background, PCA score)” value (BBC1)?
Its value is 1.387.

And the “Ratio (SH3-deleted/WT medrep)” value (BBC1; [2])?
The value was 0.4969.

What about the “medrep (log2 median colony size normalized to plate background, PCA score)” value (BEM1-2) of the same substance?
The value was 1.4327.

And the “Ratio (SH3-deleted/WT medrep)” value (BEM1-2)?
The value was 2.5.

What about the “medrep (log2 median colony size normalized to plate background, PCA score)” value (ABP1) of the same substance?
Its value is 4.275.

For YJL210W, which “medrep (log2 median colony size normalized to plate background, PCA score)” value (BEM1-1) is on record?
The value was 1.8146.

What about the “Ratio (SH3-deleted/WT medrep)” value (BEM1-1) of the same substance?
The value was 2.5.

Which “medrep (log2 median colony size normalized to plate background, PCA score)” value (BEM1-1) does the source give for YMR026C here?
The value was 3.625.

What about the “Ratio (SH3-deleted/WT medrep)” value (BEM1-1) of the same substance?
The value was 2.5.

Which “medrep (log2 median colony size normalized to plate background, PCA score)” value ([1]; bait SLA1-2, DHFR-PCA, Replicates 4 (2 for YCR009C, YDR388W)) does the source give for “YMR109W (PMFEAAYDFPGSGSPSELPLKKGDVIYITREEPSGWSLGKLLDGSKEGWVPTAYMKPHS)” here?
The value was 3.8664.

And the Score ([1]; bait SLA1-2, label = prey)?
Its Score is 1.

And the “Ratio (SH3-deleted/WT medrep)” value ([1]; bait SLA1-2, label = prey, only significant differences shown, PPIs completely lost have a ratio of 0.1, gained PPIs 2.5)?
The value was 0.1.

What about the “medrep (log2 median colony size normalized to plate background, PCA score)” value [1, 3] of the same substance?
The value was 3.8664.

And the Score ([1]; bait SLA1-3, label = prey)?
Its Score is 0.

And the “medrep (log2 median colony size normalized to plate background, PCA score)” value (BBC1)?
The value was 5.231.

What about the “medrep (log2 median colony size normalized to plate background, PCA score)” value (BEM1-2) of the same substance?
The value was 1.531.

And the “Ratio (SH3-deleted/WT medrep)” value (BEM1-2)?
The value was 0.1.

What about the “medrep (log2 median colony size normalized to plate background, PCA score)” value (BEM1-1) of the same substance?
Its value is 1.531.

And the “Ratio (SH3-deleted/WT medrep)” value (BEM1-1)?
The value was 0.1.

And the “medrep (log2 median colony size normalized to plate background, PCA score)” value (BOI2; 3-8 replicates)?
Its value is 1.504.

And the “Ratio (SH3-deleted/WT medrep)” value (BOI2; [2])?
Its value is 0.1.

What about the “medrep (log2 median colony size normalized to plate background, PCA score)” value (ABP1) of the same substance?
The value was 4.62.
